Test results from ChEMBL document CHEMBL1138872, “Free radical scavengers from the medicinal mushroom Inonotus xeranticus and their proposed biogenesis” (Bioorg Med Chem Lett, 2006).
pIC50: −log10 of the molar value.

How the values were obtained:
Type in all cases: functional
[1] = ABTS radical scavenging activity
[2] = Superoxide anion radical scavenging activity by xanthine/xanthine oxidase method
[3] = DPPH radical scavenging activity

Row | Molecule | pIC50 [1] | pIC50 [2] | pIC50 [3]
1 | COC1Oc2cc(/C=C/c3ccc(O)c(O)c3)oc(=O)c2-c2cc(O)c(O)cc21 (stereo unspecified) [INOSCAVIN D] | 4.90 | < 4.00 | < 4.00
2 | COc1cc(/C=C/c2cc3c(c(=O)o2)-c2cc(O)c(O)cc2C(OC)O3)ccc1O (stereo unspecified) [METHYLINOSCAVIN D] | 5.06 | 4.39 | < 4.00
3 | O=c1oc2cc(/C=C/c3ccc(O)c(O)c3)oc(=O)c2c2cc(O)c(O)cc12 [PHELLIGRIDIN D] | 4.86 | < 4.00 | < 4.00
4 | O=C(O)c1ccc(O)c(O)c1 [PROTOCATECHUIC ACID] | 4.80 | < 4.00 | 4.57
5 | VITAMIN E | 5.06 | < 4.00 | 4.94

The next molecules have a higher pIC50 [1] than those just listed; values first:

Row | pIC50 [1] | pIC50 [2] | pIC50 [3] | Molecule
6 | 5.30 | 4.60 | 4.53 | O=Cc1ccc(O)c(O)c1 [PROTOCATECHUALDEHYDE]
7 | 5.55 | 5.54 | 4.52 | O=C(O)/C=C/c1ccc(O)c(O)c1 [CAFFEIC ACID]
